The values below come from US20260325667A1, “TISSUE FACTOR ANTIBODY-DRUG CONJUGATES AND USES THEREOF” (priority 2022, published 2026).

SMILES strings stand for the structures. Where two headings read alike, the source gives them in different places.

Series [1] can be described thus: NHP payload (belotecan) concentration in plasma. Type of series: in vivo, cynomolgus monkeys. As to conditions: cynomolgus, ADC dosed q3wX2. The method, then:
To assess toxicity of the TF-ADCs, female cynomolgus (“cyno”) monkeys (n=2 per group) were treated via IV bolus with test articles at the doses indicated in the table below on days 1 and 22 (q3wX2). All monkeys that survived until day 43 of the study underwent euthanasia for necropsy and anatomic pathology evaluation. Clinical observations, ECG, eye exams, clinical and anatomic pathology, and TK analysis were performed.
Further, payload concentrations in plasma of cyno treated with various dosages of TF-ADC 6-4 and TF-ADC 6-8 were evaluated and the data is shown in FIGS. 14A and 14B. […] The plasma level of belotecan was low relative to ADCs and total antibody with a molar ratio (AUC0-21d) ranging from 169 to 519 for TF-ADC 6-4 and 130 to 156 for TF-ADC 6-8. TF-ADC 6-4 had approximately 2-fold higher belotecan compared to TF-ADC 6-8 for the same dose level. […] Belotecan's apparent half-life ranged between 3 to 6 days (Formation rate-limited).

Series [2] concerns A431. Description: ATP release from treated tumor cells (RealTimeGlo). Type of series: cell-based. As to conditions: TF+ tumor cell line, e.g. The method, then: (§1) Tumor cell treatment: Tumor cells (such as A431 or SKOV-3) were trypsinized by washing with PBS, then 3 mL of TrypLE express was added to each T75 flask and incubated for 3-5 minutes at 37° C. DMEM containing 10% FBS (Gibco) was added to each flask to gently wash cells. Cells were then transferred to a conical tube and centrifuged at 1000RPM for 5 minutes and resuspended in fresh medium. Cells were counted and the cell concentration was adjusted to 10,000 cells per 80 μL. Cells were plated at 80 μL per well and incubated at 37° C., 5% CO2 for 5 hours to allow cells to adhere to the plate surface. 5× dilutions of treatment compounds were made in medium. 20 µL of treatment were added to each well and mixed gently and incubated at 37° C., 5% CO2. Belotecan, MMAE, and a benchmark ADC (also referred to herein as BM ADC, CAS 1418731-10-8 and INN 10148) were also tested in parallel and served as additional controls.
(§2) ICD molecule, such as ATP and HMGB1, readouts were performed as follows. For ATP release measurement, Promega RealTimeGlo extracellular ATP assay kit (Promega, Cat #GA5010) was used according to the manufacturer's instructions. […] ATP release was measured beginning 24 hours after treatment with readings every 10 minutes on a Spectramax i3× with temperature control at 37° C. […] HMGB1 release was measured at 48- and 72-hours post-treatment.

For series [3], the system named is A431. Description: HMGB1 release from treated tumor cells (Lumit). As to conditions: TF+ tumor cell line, e.g. Type of series: cell-based. How it is done: as §1, §2
Series [4] has as its system BxPC-3. Briefly: In vitro cytotoxicity (CellTiter Glo, 5 days), BxPC-3. As to conditions: controls (FITC-ADC 8 DAR 6.36; FITC-ADC 4 DAR 3.39; free belotecan), FITC-ADC 4 value marked *: likely not accurate due to curve shape. The series is classed as cell-based. How it is done: (§3) Various cancer cell lines were plated in 96-well plates (Costar 3610) at a density of 1.5×10^3 cells/well in 100 μL of growth media. The next day, cells were treated with […] of test compounds serially-diluted in media. After incubation at 37° C. with […] for 5 days, viability was measured using the Promega CellTiter Glo® reagent according to the manufacturer's recommendations. GI50 curves were calculated in GraphPad Prism normalized to the payload concentration.
On the technique in general: Cellular ATP, detected with luciferase, serves as a proxy for viable cell number.

The test system of series [5] is HPAF-II. Briefly: In vitro cytotoxicity (CellTiter Glo, 5 days), HPAF-II. The series is classed as cell-based. Conditions: controls (FITC-ADC 8 DAR 6.36; FITC-ADC 4 DAR 3.39; free belotecan). How it is done: as §3
Series [6] has as its system A431. Description: In vitro cytotoxicity (CellTiter Glo, 5 days), A431. The series is classed as cell-based. As to conditions: controls (FITC-ADC 8 DAR 6.36; FITC-ADC 4 DAR 3.39; free belotecan). How it is done:
as §3

The mark [7] stands for this setting: read-out: IC50 - drug concentration.
The mark [8] stands for this setting: read-out: IC50 - mAb concentration.

With `CC[C@@]1(O)C(=O)OCc2c1cc1n(c2=O)Cc2c-1nc1ccccc1c2CCNC(C)C` [belotecan], in series [1], the accumulation of payload result was “Minimal accumulation of payload was observed”. The ATP release result in series [2] is given as “induced the release”. Moreover, in series [3], the HMGB1 release entry is recorded as “induced the release”. Moreover, the IC50 was 2.62 nM in series [4] (Homo sapiens, BXPC-3, 120 h, read-out: IC50 - drug concentration); 2.62 nM in series [4] (Homo sapiens, BXPC-3, 120 h, read-out: IC50 - mAb concentration); 2.56 nM in series [4] (setting [7]); 2.56 nM in series [4] (setting [8]); 3.04 nM in series [5] (Homo sapiens, 120 h, read-out: IC50 - drug concentration); 3.04 nM in series [5] (Homo sapiens, 120 h, read-out: IC50 - mAb concentration). Moreover, the IC50 in series [5] (setting [7]) was 2.45 nM; in series [5] (setting [8]) it was 2.45 nM; in series [6] (Homo sapiens, A-431, 120 h, FITC-ADC 4 value marked *: likely not accurate due to curve shape, read-out: IC50 - mAb concentration), 2.36 nM; in series [6] (Homo sapiens, A-431, 120 h, read-out: IC50 - drug concentration), 2.36 nM; in series [6] (FITC-ADC 4 value marked *: likely not accurate due to curve shape, read-out: IC50 - mAb concentration) it was 2.62 nM; in series [6] (setting [7]), 2.62 nM.
